ChEMBL document CHEMBL1140015, “Pyrazolone methylamino piperidine derivatives as novel CCR3 antagonists” (Bioorg Med Chem Lett, 2007)
Converted amounts (≈) assume the structure as drawn.

Tests used:
[1] = biological target: T1, C-C chemokine receptor type 3 (Homo sapiens, UniProt P51677); test: Displacement of [125I]eotaxin from CCR3 receptor in human eosinophils
T1 sequence (P51677 whole entry): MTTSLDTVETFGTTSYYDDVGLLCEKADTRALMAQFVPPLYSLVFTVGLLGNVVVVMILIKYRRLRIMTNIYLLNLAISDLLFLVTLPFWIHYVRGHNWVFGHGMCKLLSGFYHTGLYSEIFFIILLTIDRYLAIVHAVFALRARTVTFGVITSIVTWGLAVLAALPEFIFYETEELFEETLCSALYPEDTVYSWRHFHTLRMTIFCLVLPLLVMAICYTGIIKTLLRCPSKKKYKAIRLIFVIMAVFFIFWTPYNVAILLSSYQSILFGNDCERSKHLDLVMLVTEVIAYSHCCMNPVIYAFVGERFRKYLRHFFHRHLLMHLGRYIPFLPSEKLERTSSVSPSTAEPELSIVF

[2] = Metabolic stability in rat liver microsomes assessed as intrinsic clearance; assay type: ADME, Microsome
Hepatocyte [3] = test: Metabolic stability in rat hepatocytes after 2 hrs; assay type: ADME, cell-based
Hepatocyte [4] = test: Metabolic stability in rat hepatocytes after 19 hrs; assay type: ADME, cell-based
[5] = Solubility in water at pH 7.4
[6] = Permeability from apical to basolateral side of Caco-2 cell membrane; settings: human
[7] = biological target: T1, C-C chemokine receptor type 3; test: Antagonist activity at human CCR3 receptor assessed as inhibition of calcium flux; assay type: functional

## Cc1c(CN(CCc2ccc(Cl)cc2)C2CCN(C(=O)c3c(F)cccc3F)CC2)c(=O)n(C2CCCCC2)n1C
[1]
  IC50: 100 nM

## Cc1c(CN(CCc2ccccn2)C2CCN(C(=O)c3c(F)cccc3F)CC2)c(=O)n(-c2ccc(F)cc2)n1C
[2]
  microsomal CLint: 82 µL/min/mg
[1]
  IC50: 1000 nM
Hepatocyte [3]
  Stability: 35%
Hepatocyte [4]
  Stability: 78%

## Cc1c(CN(CCc2ccc(Cl)cc2)C2CCN(C(=O)c3c(F)cccc3F)CC2)c(=O)n(-c2ccc(N)cc2)n1C
[1]
  IC50: 79 nM

## Cc1c(CN(CCc2ccc(Cl)cc2)C2CCN(C(=O)c3c(F)cccc3F)CC2)c(=O)n(-c2ccc(C#N)cc2)n1C
[1]
  IC50: 158 nM

## COc1ccc(-n2c(=O)c(CN(CCc3ccc(Cl)cc3)C3CCN(C(=O)c4c(F)cccc4F)CC3)c(C)n2C)cc1
[1]
  IC50: 100 nM

## Cc1c(CN(CCc2ccc(Cl)cc2)C2CCN(C(=O)c3c(F)cccc3F)CC2)c(=O)n(-c2ccc(C(=O)O)cc2)n1C
[1]
  IC50: 2500 nM

## Cc1c(CN(CCc2ccc(Cl)cc2)C2CCN(C(=O)c3c(F)cccc3F)CC2)c(=O)n(-c2ccc(Cl)cc2)n1C
[1]
  IC50: 63 nM

## COc1ccncc1-n1c(=O)c(CN(CCc2ccc(Cl)cc2)C2CCN(C(=O)c3c(F)cccc3F)CC2)c(C)n1C
[1]
  IC50: 250 nM

## Cc1c(CN(CCc2ccc(F)cc2)C2CCN(C(=O)c3c(F)cccc3F)CC2)c(=O)n(-c2ccc(F)cc2)n1C
[5]
  solubility: 100 µg/mL (≈ 172 µM)
[2]
  microsomal CLint: 303 µL/min/mg
[1]
  IC50: 200 nM

## Cc1c(CN(CCc2ccc(N)cc2)C2CCN(C(=O)c3c(F)cccc3F)CC2)c(=O)n(-c2ccc(F)cc2)n1C
[5]
  solubility: 900 µg/mL (≈ 1560 µM)
[2]
  microsomal CLint: < 50 µL/min/mg
[1]
  IC50: 2500 nM
Hepatocyte [3]
  Stability: 23%
Hepatocyte [4]
  Stability: 71%
[6]
  Papp A→B: < 1 ×10⁻⁶ cm/s

## Cc1c(CN(CCc2ccc(Cl)cc2)C2CCN(C(=O)c3c(F)cccc3F)CC2)c(=O)n(-c2ccccc2)n1C
[1]
  IC50: 32 nM

## Cc1c(CN(CCCCc2ccccc2)C2CCN(C(=O)c3cccc4ccccc34)CC2)c(=O)n(-c2ccccc2)n1C
[1]
  IC50: 158 nM

## Cc1c(CN(CCc2ccc(Cl)cc2)C2CCN(C(=O)c3c(F)cccc3F)CC2)c(=O)n(-c2ccc(F)cc2)n1C
[5]
  solubility: 1 µg/mL (≈ 1.67 µM)
[2]
  microsomal CLint: 472 µL/min/mg
[7]
  IC50: 16 nM
[1]
  IC50: 20 nM
Hepatocyte [3]
  Stability: 52%
Hepatocyte [4]
  Stability: 95%
[6]
  Papp A→B: 8.1 ×10⁻⁶ cm/s

## Cc1c(CN(CCc2ccc([N+](=O)[O-])cc2)C2CCN(C(=O)c3c(F)cccc3F)CC2)c(=O)n(-c2ccc(F)cc2)n1C
[5]
  solubility: 100 µg/mL (≈ 165 µM)
[2]
  microsomal CLint: 235 µL/min/mg
[1]
  IC50: 6.3 nM
Hepatocyte [3]
  Stability: 35%
Hepatocyte [4]
  Stability: 95%

## Cc1ccc(C(=O)N2CCC(N(CCc3ccc([N+](=O)[O-])cc3)Cc3c(C)n(C)n(-c4ccc(F)cc4)c3=O)CC2)c(C)n1
[5]
  solubility: 1200 µg/mL (≈ 2000 µM)
[2]
  microsomal CLint: 79 µL/min/mg
[1]
  IC50: 12 nM
Hepatocyte [3]
  Stability: 38%
Hepatocyte [4]
  Stability: 94%

## Cc1c(CN(CCc2ccc([N+](=O)[O-])cc2)C2CCN(C(=O)c3ccccn3)CC2)c(=O)n(-c2ccc(F)cc2)n1C
[5]
  solubility: 1260 µg/mL (≈ 2200 µM)
[2]
  microsomal CLint: 62 µL/min/mg
[1]
  IC50: 12 nM
Hepatocyte [3]
  Stability: 29%
Hepatocyte [4]
  Stability: 82%
[6]
  Papp A→B: 7.8 ×10⁻⁶ cm/s

## Cc1c(CN(CCc2ccc(S(N)(=O)=O)cc2)C2CCN(C(=O)c3c(F)cccc3F)CC2)c(=O)n(-c2ccc(F)cc2)n1C
[5]
  solubility: 400 µg/mL (≈ 623 µM)
[2]
  microsomal CLint: < 50 µL/min/mg
[1]
  IC50: > 10000 nM
Hepatocyte [3]
  Stability: 43%
Hepatocyte [4]
  Stability: 86%
[6]
  Papp A→B: < 1 ×10⁻⁶ cm/s

## CC(=O)Nc1ccc(-n2c(=O)c(CN(CCc3ccc(Cl)cc3)C3CCN(C(=O)c4c(F)cccc4F)CC3)c(C)n2C)cc1
[1]
  IC50: 400 nM

## Cc1c(CN(CCc2ccc(Cl)cc2)C2CCN(C(=O)c3cccc[n+]3[O-])CC2)c(=O)n(-c2ccc(F)cc2)n1C
[5]
  solubility: > 2000 µg/mL
[2]
  microsomal CLint: < 50 µL/min/mg
[1]
  IC50: 200 nM
Hepatocyte [3]
  Stability: 15%
Hepatocyte [4]
  Stability: 55%
[6]
  Papp A→B: 1.3 ×10⁻⁶ cm/s

## Cc1c(CN(CCc2ccc(Cl)cc2)C2CCN(C(=O)c3c(F)cccc3F)CC2)c(=O)n(-c2ccc(N(C)C)cc2)n1C
[1]
  IC50: 100 nM

## Cc1c(CN(CCc2ccc(Cl)cc2)C2CCN(C(=O)c3c(F)cccc3F)CC2)c(=O)n(-c2cnccc2Cl)n1C
[1]
  IC50: 100 nM

## Cc1c(CN(CCc2ccc(Cl)cc2)C2CCN(C(=O)c3c(F)cccc3F)CC2)c(=O)n(-c2cccc(F)c2)n1C
[1]
  IC50: 100 nM

## Cc1c(CN(CCc2ccc(Cl)cc2)C2CCN(C(=O)c3c(F)cccc3F)CC2)c(=O)n(-c2ccccc2F)n1C
[1]
  IC50: 40 nM

## Cc1c(CN(CCc2ccc(Cl)cc2)C2CCN(C(=O)c3c(F)cccc3F)CC2)c(=O)n(-c2ccc(O)cc2)n1C
[1]
  IC50: 100 nM

## Cc1c(CN(CCc2ccc(Cl)cc2)C2CCN(C(=O)c3c(F)cccc3F)CC2)c(=O)n(-c2ccc([N+](=O)[O-])cc2)n1C
[1]
  IC50: 100 nM

## Cc1c(CN(CCc2ccc(Cl)cc2)C2CCN(C(=O)c3c(F)cccc3F)CC2)c(=O)n(-c2ccccn2)n1C
[1]
  IC50: 25 nM

## Cc1c(CN(CCc2cccnc2)C2CCN(C(=O)c3c(F)cccc3F)CC2)c(=O)n(-c2ccc(F)cc2)n1C
[5]
  solubility: > 2000 µg/mL
[2]
  microsomal CLint: 113 µL/min/mg
[1]
  IC50: 2500 nM
